US9567331B2 (priority 2011, dated 2017)

What was measured:
[1] = system: wild-type vaccinia strain Western Reserve; type: cell-based
[2] = system: LREV virus (late red early Venus reporter vaccinia virus); type: cell-based
[3] = system: late Venus; LV virus (Venus under control of the late F17R promoter); type: cell-based, vaccinia strain Western Reserve
[4] = system: LV virus / LR virus in A549 cells; type: cell-based, vaccinia strain Western Reserve
[5] = system: EV, IV and LV reporter viruses; type: cell-based
[6] = system: EV, IV and LV reporter mRNA; type: cell-based, vaccinia strain Western Reserve
TrpV reporter virus = type: cell-based
[7] = system: viral DNA replication (LV virus); type: cell-based
[8] = system: LV virus late reporter expression; type: cell-based, vaccinia strain Western Reserve
[9] = system: monkeypox Zaire 1979 (MPDX); type: cell-based
[10] = system: cowpox Brighton red (CPX); type: cell-based
[11] = system: vaccinia virus strain IHDJ; type: cell-based
HIV/Lai = experiment: microbe, parasite or virus in culture; type: cell-based; conditions: Human immunodeficiency virus 1, TZM-bl, read-out: IC50, inhibition of HIV
[12] = system: cellular and viral protein synthesis
vaccinia virus = type: cell-based

Compound: Nc1ccn([C@@H]2O[C@H](CO)[C@@H](O)[C@@H]2O)c(=O)n1 [AraC]
- virus yield reduction, single-cycle [1]: 3.5 log

Compound: CC(=O)C1=C2C=CCCN2C(=O)N[C@H]1c1ccccc1 [CMLDBU6128, 4-acetyl-2,3,7,8-tetrahydro-3-phenylpyrido[1,2-f]pyrimidin-1-one]
- antiviral activity of screening hit [2]: strongly antiviral
- IC50 ([3]; read-out: IC50 for LV reporter expression): ~5.3 µM
- IC90 ([3]; read-out: IC90 for LV reporter expression): ~10.4 µM
- viral spread after low MOI infection [4]: limits viral spread after low MOI infection
- virus yield reduction, single-cycle [1]: 3.6 log
- EV (early) reporter expression [5]: unaffected
- IV (intermediate) reporter expression [5]: only reached half-maximal levels
- reduction of maximum LV (late) reporter fluorescence [5]: approximately 85%
- EV reporter mRNA accumulation [6]: unaffected
- reduction of peak IV reporter mRNA [6]: 41%
- reduction of peak LV reporter mRNA [6]: 73%
- early Venus expression (TrpV) (TrpV reporter virus): no detectable effect
- mCherry and late TagBFP expression (TrpV) (TrpV reporter virus): reduced mCherry and late TagBFP expression uniformly
- Venus DNA copies/c.e. [7]: 529 copies/c.e.
- viral DNA replication [7]: occurred normally
- reporter expression after drug removal [8]: drug removal did not result in a restart of reporter expression
- time to flattening of late reporter expression after addition to an unimpeded 10 h infection [8]: ≤ 2 h
- viral yield reduction [9]: 2.5 log
- viral yield reduction [10]: 4.0 log
- viral yield reduction [11]: 2.4 log
- IC50 (HIV/Lai): ~20 µM
- cytotoxicity of screening hit (A549 and HeLa cells): not cytotoxic
- cell cytotoxicity (A549 and HeLa cells; 24 h): little to no cell cytotoxicity
- cellular protein synthesis in mock-infected cells [12]: unaffected
- viral protein synthesis [12]: globally reduced

Compound: CC(=O)C1=C2C=C(C)CCN2C(=O)NC1c1ccccc1 (centres unmarked) [Compound 3b, 4-acetyl-6-methyl-3-phenyl-2,3,7,8-tetrahydro-1H-pyrido[1,2-c]pyrimidin-1-one]
- antiviral activity compared with CMLDBU6128 (vaccinia virus): demonstrated antiviral activity but were significantly less active than CMLDBU6 128

Compound: COC(=O)C1=C2C=C([Si](C)(C)C)CCN2C(=O)NC1c1ccccc1 (centres unmarked) [Compound 4c, methyl 1-oxo-3-phenyl-6-(trimethylsilyl)-2,3,7,8-tetrahydro-1Hpyrido[1,2-c]pyrimidine-4-carboxylate]
- melting point: 169 to 172 °C

Compound: O=C(NN1C(=O)[C@@H]2[C@@H]3C=C[C@@H]([C@H]4C[C@@H]34)[C@@H]2C1=O)c1ccc(C(F)(F)F)cc1 [ST-246]
- virus yield reduction, single-cycle [1]: 0.3 log
